Consider 28 compounds from patent US7410975B2, “Small molecule toll-like receptor (TLR) antagonists” (Coley Pharmaceutical Group, Inc., priority 2003, dated 2008).

The test concerns the target T1, human TLR7 (hTLR7) (Homo sapiens, UniProt Q9NYK1).
T1 construct: expressed in transfected cells
T1 sequence (Q9NYK1 27-1049): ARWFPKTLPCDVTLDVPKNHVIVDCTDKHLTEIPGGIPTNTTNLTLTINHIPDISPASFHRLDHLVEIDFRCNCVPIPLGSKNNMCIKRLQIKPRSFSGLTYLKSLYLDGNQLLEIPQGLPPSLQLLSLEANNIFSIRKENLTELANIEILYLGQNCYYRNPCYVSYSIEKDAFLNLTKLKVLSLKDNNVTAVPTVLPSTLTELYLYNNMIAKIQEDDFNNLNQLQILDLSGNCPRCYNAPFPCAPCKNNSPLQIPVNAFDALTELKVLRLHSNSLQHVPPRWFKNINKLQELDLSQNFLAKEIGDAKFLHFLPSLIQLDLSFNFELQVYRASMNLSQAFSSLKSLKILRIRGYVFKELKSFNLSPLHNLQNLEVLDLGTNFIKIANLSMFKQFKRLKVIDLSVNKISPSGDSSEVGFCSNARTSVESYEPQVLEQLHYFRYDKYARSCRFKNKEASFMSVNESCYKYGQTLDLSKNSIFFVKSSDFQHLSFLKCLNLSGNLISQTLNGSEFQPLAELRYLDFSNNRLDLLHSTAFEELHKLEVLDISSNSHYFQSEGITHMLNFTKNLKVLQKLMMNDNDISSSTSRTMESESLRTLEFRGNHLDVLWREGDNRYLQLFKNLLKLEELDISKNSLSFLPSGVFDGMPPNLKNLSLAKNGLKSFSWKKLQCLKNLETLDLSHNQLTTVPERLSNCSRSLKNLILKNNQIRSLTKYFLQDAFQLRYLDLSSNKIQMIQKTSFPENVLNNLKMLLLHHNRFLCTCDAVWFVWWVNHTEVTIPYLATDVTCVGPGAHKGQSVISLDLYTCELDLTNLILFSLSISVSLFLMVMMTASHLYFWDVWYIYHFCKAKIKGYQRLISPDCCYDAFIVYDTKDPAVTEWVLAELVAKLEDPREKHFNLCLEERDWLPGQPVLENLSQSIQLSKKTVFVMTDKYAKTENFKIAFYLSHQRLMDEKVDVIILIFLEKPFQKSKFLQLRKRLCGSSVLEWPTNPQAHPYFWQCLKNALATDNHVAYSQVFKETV
Nature of the test: Antagonist screen, hTLR7-NFκB-293 cells, NF-κB-luciferase reporter, with EC50 of R848. The note with it: compound at 0.5, 5, 50 μg/ml; EC50 concentration of R848; 16 h; NF-κB-luciferase. The format is cell-based. The procedure: The method is described in greater detail as follows. The cells for each individual cell clone (hTLR3-NFκB-293, hTLR7-NFκB-293, hTLR8-NFκB-293 and hTLR9-NFκB-293) were counted and seeded one day before the stimulation at 1.5×10^4 cells per well in 96-well cell culture plates. To become adherent the cells were incubated after seeding overnight at 37° C. in 5% CO2 humidified air.
The screen for each compound was performed at the same time for all of the receptors TLR3, TLR7, TLR8 and TLR9. Up to fifteen test compounds, each assayed in duplicate at each of three different final concentrations (0.5 μg/ml, 5 μg/ml, and 50 μg/ml), were used for 16 h cell stimulation on a single multiwell culture plate. A 4× final concentration master plate was created to prepare the different test compounds before they were added to the cells.
Controls were added as duplicates individually for each cell clone on the cell culture plate. Positive controls were used as follows (final concentrations): 50 μg/ml poly(I:C) for hTLR3-NFκB-293; 8 μM resiquimod (R848) for hTLR7-NFκB-293; 30 μM R848 for hTLR8-NFκB-293; and 2.5 μM CpG-ODN 2006 for hTLR9-NFκB-293. Media alone was used as negative control. After addition of controls and small molecules, the cell clones were additionally stimulated with the EC50 concentration of the appropriate receptor-specific ligand.
The mean value of wells H2 and H5 (each with cells and EC50 concentration of the appropriate receptor-specific ligand) divided by the mean of wells H3 and H6 (each with cells alone) yielded the baseline response (i.e., fold induction of luciferase activity) to EC50 concentration of the appropriate receptor-specific ligand.
After 16 h stimulation the supernatant was removed and the cells treated with lysis buffer and stored at −80° C. before measuring.
For each screen result a graphical documentation was performed.
The baseline result (measured with addition of the EC50 concentration of the receptor-specific ligand) for each cell culture plate was measured as described above. Antagonistic effects were measured by down regulation compared to the baseline. Antagonists were scored as follows: • 13: compounds for which there was clear down regulation at 0.5 μg/ml, 5 μg/ml, and 50 μg/ml; • 12: compounds for which there was clear down regulation at 5 μg/ml and 50 μg/ml; • 11: compounds for which there was clear down regulation only at 50 μg/ml; • —: compounds for which there was no clear down regulation even at 50 μg/ml. Agonists
Results were expressed as fold induction over baseline luciferase activity measured in the absence of R848. […] Additional screening was performed in like manner using additional small molecules selected from another library or specifically prepared for this purpose. Scoring is reported as above but as applied to TLR7.
For the compound `CC1NCCc2c1[nH]c1ccccc21.Cl` (racemic) [compound 619, Eleagnine hydrochloride (R,S)], the “hTLR7 (inhibitory effect, antagonist score)” value is given as “— (compounds for which there was no clear down regulation even at 50 μg/ml)”.
Turning to `O=C1c2c(O)cccc2Cc2cccc(O)c21` [compound 43, Anthralin], the “hTLR7 (inhibitory effect, antagonist score)” value is “— (compounds for which there was no clear down regulation even at 50 μg/ml)”.
For the compound `CN(C)CCCN1c2ccccc2Sc2ccc(C(F)(F)F)cc21.Cl` [compound 53, Triflupromazinehydrochloride], the “hTLR7 (inhibitory effect, antagonist score)” value is given as 11 (compounds for which there was clear down regulation only at 50 μg/ml).
The result for `CN(C)CCCN1c2ccccc2Sc2ccc(Cl)cc21.Cl` [compound 64, Chlorpromazinehydrochloride] reads 11 (compounds for which there was clear down regulation only at 50 μg/ml); that for `CN(C)CCC=C1c2ccccc2CCc2ccccc21.Cl` [compound 74, Amitryptilinehydrochloride], 11 (compounds for which there was clear down regulation only at 50 μg/ml); that for `OC(c1ccccc1)(c1ccccc1)C1CCNCC1` [compound 93, Azacyclonol], “— (compounds for which there was no clear down regulation even at 50 μg/ml)”.
Consider `CN1Cc2c(N)cccc2C(c2ccccc2)C1.O=C(O)/C=C\C(=O)O` (stereo not shown) [compound 108, Nomifensine maleate], for which the “hTLR7 (inhibitory effect, antagonist score)” value is listed as “— (compounds for which there was no clear down regulation even at 50 μg/ml)”.
On to `C[C@]12N[C@H](Cc3ccccc31)c1ccccc12.O=C(O)/C=C\C(=O)O` [compound 109, Dizocilpine maleate], for which the “hTLR7 (inhibitory effect, antagonist score)” value is listed as “— (compounds for which there was no clear down regulation even at 50 μg/ml)”.
The result for `OCCN1CCN(CCCN2c3ccccc3Sc3ccc(Cl)cc32)CC1` [compound 125, Perphenazine] reads “— (compounds for which there was no clear down regulation even at 50 μg/ml)”; that for `CN1CCN(CCCN2c3ccccc3Sc3ccc(S(=O)(=O)N(C)C)cc32)CC1.CS(=O)(=O)O.CS(=O)(=O)O` [compound 149, Thioproperasinedimesylate], “— (compounds for which there was no clear down regulation even at 50 μg/ml)”; that for `Clc1ccccc1C(c1ccccc1)(c1ccccc1)n1ccnc1` [compound 267, Clotrimazole], 12 (compounds for which there was clear down regulation at 5 μg/ml and 50 μg/ml).
`CC(NCCC(c1ccccc1)c1ccccc1)c1ccccc1.Cl` (stereo not shown) [compound 270, Fendiline hydrochloride]: the “hTLR7 (inhibitory effect, antagonist score)” value is 11 (compounds for which there was clear down regulation only at 50 μg/ml).
Consider `CN1CCC(=C2c3ccccc3Sc3ccccc32)CC1.O=C(O)/C=C\C(=O)O` [compound 294, Pimethixene maleate], for which the “hTLR7 (inhibitory effect, antagonist score)” value was 11 (compounds for which there was clear down regulation only at 50 μg/ml).
On to `O=c1[nH]c2ccccc2n1C1CCN(CCCC(c2ccc(F)cc2)c2ccc(F)cc2)CC1` [compound 308, Pimozide], for which the “hTLR7 (inhibitory effect, antagonist score)” value is on record as 11 (compounds for which there was clear down regulation only at 50 μg/ml).
For `Cl.Cl.OCCN1CCN(CC/C=C2/c3ccccc3Sc3ccc(C(F)(F)F)cc32)CC1` [compound 340, Flupentixoldihydrochloride cis-(Z)], the “hTLR7 (inhibitory effect, antagonist score)” value is on record as 11 (compounds for which there was clear down regulation only at 50 μg/ml).
As to `CNCCCN1c2ccccc2CCc2ccccc21.Cl` [compound 343, Desipraminehydrochloride], the “hTLR7 (inhibitory effect, antagonist score)” value is 12 (compounds for which there was clear down regulation at 5 μg/ml and 50 μg/ml).
For `CN(C)CC/C=C1/c2ccccc2Sc2ccc(Cl)cc21.Cl` [compound 348, Chlorprothixenehydrochloride], the “hTLR7 (inhibitory effect, antagonist score)” value is on record as 11 (compounds for which there was clear down regulation only at 50 μg/ml).
The result for `Cc1cccc(C)c1NC(=O)CN1CCN(CCCC(c2ccc(F)cc2)c2ccc(F)cc2)CC1` [compound 381, Lidoflazine] reads 11 (compounds for which there was clear down regulation only at 50 μg/ml); that for `Cl.Cl.Fc1ccc(C(OCCN2CCN(CCCc3ccccc3)CC2)c2ccc(F)cc2)cc1` [compound 386, GBR 12909hydrochloride], 11 (compounds for which there was clear down regulation only at 50 μg/ml); that for `Nc1cccc2c1C(=O)c1cccc(N)c1C2=O` [compound 413, Anthraquinone,1,5-diamino], “— (compounds for which there was no clear down regulation even at 50 μg/ml)”.
In the case of `CN1CCC2C(C1)c1ccccc1N2Cc1ccccc1` (stereo not shown) [compound 455, Mebhydroline 1,5 naphtalenedisulfonate], the “hTLR7 (inhibitory effect, antagonist score)” value was “— (compounds for which there was no clear down regulation even at 50 μg/ml)”.
`Cc1cccc(CN2CCN(C(c3ccccc3)c3ccc(Cl)cc3)CC2)c1.Cl.Cl` (stereo not shown) [compound 457, Meclozinedihydrochioride]: the “hTLR7 (inhibitory effect, antagonist score)” value is recorded as “— (compounds for which there was no clear down regulation even at 50 μg/ml)”.
As for `c1ccc2c(c1)[nH]c1cnccc12` [compound 470, norharman], the “hTLR7 (inhibitory effect, antagonist score)” value was 11 (compounds for which there was clear down regulation only at 50 μg/ml).
For the compound `CN(C)CC/C=C1/c2ccccc2CSc2ccccc21.Cl` [compound 488, Dosulepin hydrochloride], the “hTLR7 (inhibitory effect, antagonist score)” value is “— (compounds for which there was no clear down regulation even at 50 μg/ml)”.
Turning to `CN1CCN(C(c2ccccc2)c2ccccc2)CC1.Cl` [compound 510, Cyclizine hydrochloride], the “hTLR7 (inhibitory effect, antagonist score)” value is listed as “— (compounds for which there was no clear down regulation even at 50 μg/ml)”.
As for `CN1CCCCC1CCN1c2ccccc2Sc2ccc([S+](C)[O-])cc21.O=S(=O)(O)c1ccccc1` (stereo not shown) [compound 529, Mesoridazine besylate], the “hTLR7 (inhibitory effect, antagonist score)” value is on record as “— (compounds for which there was no clear down regulation even at 50 μg/ml)”.
Consider `CCOC(=O)Oc1c(OC)cc(C(=O)O[C@@H]2C[C@@H]3CN4CCc5c([nH]c6cc(OC)ccc56)[C@H]4C[C@@H]3[C@H](C(=O)OC)[C@H]2OC)cc1OC` [compound 564, Syrosingopine], for which the “hTLR7 (inhibitory effect, antagonist score)” value is given as 11 (compounds for which there was clear down regulation only at 50 μg/ml).
For `COC(=O)[C@H]1[C@H]2C[C@@H]3c4[nH]c5cc(OC)ccc5c4CCN3C[C@H]2C[C@@H](OC(=O)/C=C/c2cc(OC)c(OC)c(OC)c2)[C@@H]1OC` [compound 568, Rescinnamin], the “hTLR7 (inhibitory effect, antagonist score)” value is recorded as “— (compounds for which there was no clear down regulation even at 50 μg/ml)”.
